pIC50: −log10 of the molar value.

Assay [1] concerns the target T1, Shaker voltage-gated potassium channel (Drosophila melanogaster, UniProt P08510). The experiment in a line: cut-open voltage clamp of Shaker in Xenopus laevis oocytes, […] mV, pH […]. The format is cell-based.
A further assay concerns the target CYP2E1 (Homo sapiens, UniProt P05181). Nature of the assay: Vivid CYP2E1 fluorogenic competitive inhibition assay, dose-response. The format is biochemical.
Assay [2] deals with T1, Shaker voltage-gated potassium channel. The experiment in a line: cut-open voltage clamp of Shaker in Xenopus oocytes, […] mV, pH […]. The format is cell-based.

T1 sequence (P08510 whole entry): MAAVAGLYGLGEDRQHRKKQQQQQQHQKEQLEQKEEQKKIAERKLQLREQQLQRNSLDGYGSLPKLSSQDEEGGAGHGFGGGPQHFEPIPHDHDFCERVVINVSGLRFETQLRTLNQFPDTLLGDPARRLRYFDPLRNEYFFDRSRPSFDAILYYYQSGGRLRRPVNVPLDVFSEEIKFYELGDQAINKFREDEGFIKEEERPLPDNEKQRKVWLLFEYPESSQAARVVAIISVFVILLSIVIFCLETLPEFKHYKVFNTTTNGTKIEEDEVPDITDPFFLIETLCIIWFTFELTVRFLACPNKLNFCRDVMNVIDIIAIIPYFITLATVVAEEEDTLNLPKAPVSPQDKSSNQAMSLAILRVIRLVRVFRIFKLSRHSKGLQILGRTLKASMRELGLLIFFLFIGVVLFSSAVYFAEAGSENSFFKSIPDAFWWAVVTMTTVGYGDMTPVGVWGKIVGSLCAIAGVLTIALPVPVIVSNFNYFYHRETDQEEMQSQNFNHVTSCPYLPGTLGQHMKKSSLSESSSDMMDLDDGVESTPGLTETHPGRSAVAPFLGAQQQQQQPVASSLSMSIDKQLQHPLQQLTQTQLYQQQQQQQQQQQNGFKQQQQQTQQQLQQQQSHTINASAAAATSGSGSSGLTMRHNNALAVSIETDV
CYP2E1, sequence (P16435 2-677): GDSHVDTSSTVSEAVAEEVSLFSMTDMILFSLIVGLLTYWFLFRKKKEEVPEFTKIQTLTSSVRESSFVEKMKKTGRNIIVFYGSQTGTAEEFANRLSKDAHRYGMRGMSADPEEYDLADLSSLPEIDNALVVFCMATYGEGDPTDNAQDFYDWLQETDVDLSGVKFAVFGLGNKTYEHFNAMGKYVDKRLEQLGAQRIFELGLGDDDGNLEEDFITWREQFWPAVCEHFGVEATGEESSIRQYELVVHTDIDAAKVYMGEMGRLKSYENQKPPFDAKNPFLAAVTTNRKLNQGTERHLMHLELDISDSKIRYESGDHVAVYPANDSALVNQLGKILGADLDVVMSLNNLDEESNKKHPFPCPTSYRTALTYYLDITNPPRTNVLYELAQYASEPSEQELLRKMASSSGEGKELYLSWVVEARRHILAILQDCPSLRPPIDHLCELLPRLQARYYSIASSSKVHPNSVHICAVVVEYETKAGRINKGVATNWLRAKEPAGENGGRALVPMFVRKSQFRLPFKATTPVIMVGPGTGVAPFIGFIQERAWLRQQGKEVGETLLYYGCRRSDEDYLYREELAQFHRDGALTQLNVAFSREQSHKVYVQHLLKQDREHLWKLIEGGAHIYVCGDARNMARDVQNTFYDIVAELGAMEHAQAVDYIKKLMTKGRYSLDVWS
CYP2E1, sequence (P05181 whole entry): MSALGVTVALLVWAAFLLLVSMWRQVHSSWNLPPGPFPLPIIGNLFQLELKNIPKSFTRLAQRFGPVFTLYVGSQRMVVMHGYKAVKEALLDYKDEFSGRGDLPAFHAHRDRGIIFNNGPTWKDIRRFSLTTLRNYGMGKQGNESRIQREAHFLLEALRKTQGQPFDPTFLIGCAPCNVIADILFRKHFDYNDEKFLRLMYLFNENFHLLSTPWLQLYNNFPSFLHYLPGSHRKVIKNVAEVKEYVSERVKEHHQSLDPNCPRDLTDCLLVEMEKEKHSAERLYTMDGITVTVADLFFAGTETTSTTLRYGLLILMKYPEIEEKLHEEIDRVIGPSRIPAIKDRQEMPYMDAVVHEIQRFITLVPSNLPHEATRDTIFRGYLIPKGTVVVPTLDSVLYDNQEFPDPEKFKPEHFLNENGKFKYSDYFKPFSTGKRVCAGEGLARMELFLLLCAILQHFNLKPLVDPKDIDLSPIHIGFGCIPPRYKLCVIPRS

Broadly, the pIC50 is the negative decadic logarithm of the IC50, by convention in mol/L. A high value points to a low IC50. Take `Cc1cncc(F)c1N` [5Me3F4AP, 3-fluoro-5-methylpyridin-4-amine]: the pIC50 was 3.52 in assay [1] and 4.44 on CYP2E1.

For the compound `Nc1ccncc1F` [3F4AP, 3-fluoro-4-aminopyridine], the results for the pIC50 (on CYP2E1; in assay [2]) were 4.77 and 3.91, respectively.

Compound `Cc1cnccc1N` [3Me4AP] gave a pIC50 in assay [2] of 4.18.

(Values after article PMC10441322 (bioRxiv, 2023).)
